Columns and labels:
[1] = Cytotoxicity against human H460 cells; format: functional, cell-based; conditions: NCI-H460
PC-3 = experiment: Cytotoxicity against human PC3 cells; format: functional, cell-based
MCF7 = experiment: Cytotoxicity against human MCF7 cells; format: functional, cell-based
HL-60 = experiment: Cytotoxicity against human HL60 cells; format: functional, cell-based
B16 = experiment: Antitumor activity against mouse B16 cells graft model at 12.5 mg/kg, ip qd for 9 days; format: functional; conditions: route intraperitoneal
P388 [2] = experiment: Antitumor activity against mouse P388 cells graft model at 7.5 mg/kg, ip qd for 5 days; format: functional; conditions: route intraperitoneal
P388 [3] = experiment: Antitumor activity against mouse P388 cells assessed as increase in life span of host; format: functional

SMILES	IC50 [1] [µM]	IC50 (MCF7) [µM]	IC50 (HL-60) [µM]	further results
CCNC(=O)OCc1c(COC(=O)NCC)c(-c2ccc(OC)cc2)n2c1Cc1ccccc1-2	13.2	25.9	–	IC50 (PC-3): 30.2 µM
COc1ccc(-c2c(COC(=O)NC(C)C)c(COC(=O)NC(C)C)c3n2-c2ccccc2C3)cc1	20.3	34.2	–	IC50 (PC-3): 23.2 µM
CC(C)NC(=O)OCc1c(COC(=O)NC(C)C)c(-c2ccc(Cl)c(Cl)c2)n2c1CCC2	–	–	1.5	–
COc1ccc2c(c1)CCn1c(C)c(COC(=O)NC(C)C)c(COC(=O)NC(C)C)c1-2	–	–	–	T/C (B16): 180%; T/C (P388 [2]): 232%
CC(C)NC(=O)OCc1c(COC(=O)NC(C)C)c(-c2ccc(F)cc2)n2c1SCC2	–	–	1.6	–
Cc1c(COC(=O)NC(C)C)c(COC(=O)NC(C)C)c2n1CS(=O)(=O)C2	–	–	–	Activity (P388 [3]): 118%
CC(C)NC(=O)OCc1c(COC(=O)NC(C)C)c(-c2ccc(Cl)cc2)n2c1SCC2	–	–	0.85	–
CC(C)NC(=O)OCc1c(COC(=O)NC(C)C)c(-c2ccccc2)n2c1SCC2	–	–	1.5	–
CNC(=O)OCc1c(COC(=O)NC)c(-c2ccc(OC)cc2)n2c1Cc1ccccc1-2	82.1	20	–	–
